Like-named read-outs stand apart in the source and are kept apart here. Starred links: 1 amine or outer side, 2 acyl side, 3 side chain; linkers in the order of their positions; H or OH if unused. Non-standard residues stand in square brackets, D forms with d. Residues, ends and D or L forms follow the SMILES beside them. Groups on a side chain read outwards from the residue. *: point of attachment. C20 diacid = O=C(O)CCCCCCCCCCCCCCCCCCC(=O)*; C18 diacid = O=C(O)CCCCCCCCCCCCCCCCC(=O)*; αMePhe(2-F) = C[C@](N)(Cc1ccccc1F)C(=O)O; γGlu = O=C(O)[C@H](CCC(=O)[*:2])N[*:1]; αMe4Pal = C[C@](N)(Cc1ccncc1)C(=O)O; αMeY = C[C@](N)(Cc1ccc(O)cc1)C(=O)O; 4Pal = N[C@@H](Cc1ccncc1)C(=O)O; αMeL = CC(C)C[C@](C)(N)C(=O)O; αMeS = C[C@](N)(CO)C(=O)O; Orn = NCCC[C@H](N)C(=O)O; AEEA = NCCOCCOCC(=O)O; Aib = CC(C)(N)C(=O)O

Consider ten molecules from patent US20240270821A1, “GIP/GLP1/GCG TRI-RECEPTOR AGONISTS AND USES THEREOF” (priority 2023, published 2024).

Type in all cases: cell-based
For one experiment, the target named is human GcgR (Homo sapiens, UniProt P47871). The experiment in a line: Functional cAMP activity in the presence of 1% HSA. The conditions noted are these: read-out: cAMP Rel EC50, hGcgR.
Experiment [1] deals with T1, hGLP-1R (Homo sapiens, UniProt P43220). The experiment in a line: Functional cAMP activation in the presence of 0.1% casein (no HSA). Particulars: read-out: Relative cAMP EC50, hGLP-1R.
In a further experiment the target is hGcgR (Homo sapiens, UniProt P47871). The experiment is described as above. Particulars: read-out: Relative cAMP EC50, hGcgR.
The target of experiment [2] is T2, hGIPR (Homo sapiens, UniProt P48546).
T2 sequence (P48546 22-466): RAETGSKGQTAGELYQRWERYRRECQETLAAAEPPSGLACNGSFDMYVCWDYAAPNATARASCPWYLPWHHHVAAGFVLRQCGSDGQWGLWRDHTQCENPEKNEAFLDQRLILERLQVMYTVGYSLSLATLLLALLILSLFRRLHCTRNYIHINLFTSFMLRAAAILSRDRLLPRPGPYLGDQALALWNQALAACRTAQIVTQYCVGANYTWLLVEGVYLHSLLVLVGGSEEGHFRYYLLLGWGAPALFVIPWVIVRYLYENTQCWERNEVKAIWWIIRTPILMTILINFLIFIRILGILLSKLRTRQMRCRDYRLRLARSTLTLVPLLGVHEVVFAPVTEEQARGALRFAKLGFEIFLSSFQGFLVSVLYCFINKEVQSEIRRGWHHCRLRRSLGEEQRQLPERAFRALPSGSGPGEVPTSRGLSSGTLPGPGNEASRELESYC
Described as above. The conditions noted are these: read-out: Relative cAMP EC50, hGIPR.

The target in experiment [3] is T1, hGLP-1R. The experiment in a line: Functional cAMP activity in the presence of 1% HSA. The conditions noted are these: read-out: cAMP Rel EC50, hGLP-1R.
Experiment [4] has as its target T2, hGIPR. The experiment in a line: Functional cAMP activity in the presence of 1% HSA. The conditions noted are these: read-out: cAMP Rel EC50, hGIPR.
Where [5] appears, read: in the presence of 0.1% casein (no HSA), geometric mean.
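For Relative cAMP EC50, hGIPR in this document: intracellular cAMP rise after 30 min at 37 °C read by HTRF against a standard curve, scaled between buffer alone (0%) and top control ligand concentration (100%), four-parameter fit.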
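For Relative cAMP EC50, hGLP-1R in this document: intracellular cAMP rise after 30 min at 37 °C read by HTRF, normalized between buffer only (0%) and maximal control ligand (100%), four-parameter variable-slope fit.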
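For Relative cAMP EC50, hGcgR in this document: intracellular cAMP rise after 30 min at 37 °C, read by HTRF against a cAMP standard curve, scaled from buffer only (0%) to maximal control ligand response (100%).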

T1 sequence (P43220 24-463): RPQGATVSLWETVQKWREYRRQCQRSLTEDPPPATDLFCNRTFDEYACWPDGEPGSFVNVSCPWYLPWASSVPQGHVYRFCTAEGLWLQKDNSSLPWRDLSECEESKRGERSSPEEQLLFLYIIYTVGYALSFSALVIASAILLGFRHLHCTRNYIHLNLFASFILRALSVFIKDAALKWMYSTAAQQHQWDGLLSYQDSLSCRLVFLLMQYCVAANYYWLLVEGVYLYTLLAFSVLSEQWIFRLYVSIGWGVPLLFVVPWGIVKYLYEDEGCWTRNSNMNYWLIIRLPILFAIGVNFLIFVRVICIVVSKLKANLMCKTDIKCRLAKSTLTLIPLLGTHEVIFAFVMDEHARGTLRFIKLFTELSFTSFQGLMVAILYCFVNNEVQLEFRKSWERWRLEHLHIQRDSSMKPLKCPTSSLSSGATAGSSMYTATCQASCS
Chain of hGcgR (P47871 26-477): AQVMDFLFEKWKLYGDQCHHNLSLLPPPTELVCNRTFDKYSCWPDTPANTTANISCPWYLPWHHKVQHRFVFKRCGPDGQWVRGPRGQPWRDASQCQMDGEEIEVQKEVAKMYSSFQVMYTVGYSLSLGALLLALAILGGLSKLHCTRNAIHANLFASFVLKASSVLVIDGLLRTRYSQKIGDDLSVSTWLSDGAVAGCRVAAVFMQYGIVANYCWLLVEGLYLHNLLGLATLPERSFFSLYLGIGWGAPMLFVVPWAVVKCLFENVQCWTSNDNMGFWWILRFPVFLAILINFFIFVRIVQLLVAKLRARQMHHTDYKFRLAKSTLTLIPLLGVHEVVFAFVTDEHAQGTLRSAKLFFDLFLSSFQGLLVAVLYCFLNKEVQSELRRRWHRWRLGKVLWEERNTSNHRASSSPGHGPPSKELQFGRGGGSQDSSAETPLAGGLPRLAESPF
Chain of human GcgR (P47871 26-477): as above

In general, EC50 refers to the concentration needed to bring the measured effect to its halfway point. With `CC[C@H](C)[C@H](NC(=O)[C@H](CC(C)C)NC(=O)[C@](C)(Cc1ccc(O)cc1)NC(=O)[C@@H](CCC(=O)O)NC(=O)[C@@H](NC(=O)[C@H](Cc1ccccc1)NC(=O)[C@H](CCC(=O)O)NC(=O)C(C)(C)NC(=O)[C@H](C)NC(=O)[C@H](C)NC(=O)[C@H](CCCCNC(=O)COCCOCCNC(=O)CC[C@H](NC(=O)CCCCCCCCCCCCCCCCC(=O)O)C(=O)O)NC(=O)[C@H](CCCN)NC(=O)[C@H](CC(=O)O)NC(=O)[C@H](CC(C)C)NC(=O)[C@](C)(CC(C)C)NC(=O)[C@@H](NC(=O)[C@](C)(CO)NC(=O)[C@H](Cc1ccncc1)NC(=O)[C@H](CC(=O)O)NC(=O)[C@H](CO)NC(=O)[C@@H](NC(=O)[C@](C)(Cc1ccccc1F)NC(=O)[C@@H](NC(=O)CNC(=O)[C@H](CCC(N)=O)NC(=O)C(C)(C)NC(=O)[C@@H](N)Cc1ccc(O)cc1)[C@@H](C)O)[C@@H](C)O)[C@@H](C)CC)[C@@H](C)CC)C(=O)N[C@@H](CCC(=O)O)C(=O)NCC(=O)NCC(=O)N1CCC[C@H]1C(=O)N[C@@H](CO)C(=O)N[C@@H](CO)C(=O)NCC(=O)N[C@@H](C)C(=O)N1CCC[C@H]1C(=O)N1CCC[C@H]1C(=O)N1CCC[C@H]1C(=O)N[C@@H](CO)C(=O)NCC(=O)N[C@@H](CO)C(=O)N[C@@H](CCC(=O)O)C(=O)N[C@@H](CCC(=O)O)C(N)=O` [Example 704], the EC50 on human GcgR came out at 239 nM; at hGLP-1R [1] it was 0.287 nM; on hGcgR, 1.85 nM; on hGIPR [2] it was 0.013 nM; at hGLP-1R [3], 33.9 nM; on hGIPR [4] it was 1.2 nM.
Consider “H-Y[Aib]QGTFTSD[4Pal]SQ[αMeL]LD[Orn]K([AEEA-γGlu-γGlu-C18 diacid])AQ[αMe4Pal]AFIEYLIE[dA]GPSSGEPPPSGS-NH2 [Example 1018]”, for which the EC50 came to 568 nM on human GcgR; 1.69 nM at hGLP-1R [1] (setting [5]); 5.29 nM on hGcgR (setting [5]); 0.51 nM at hGIPR [2] (setting [5]); 163 nM on hGLP-1R [3]; 14.1 nM on hGIPR [4].
Consider “H-Y[Aib]QGT[αMePhe(2-F)]TSD[4Pal][αMeS]I[αMeL]LD[Orn]K([γGlu-Glu-C18 diacid])AQ[Aib][Orn]FI[dE][αMeY]LSEGGPSSGEPPPSGTEE-NH2 [Example 566]”, for which the concentration for a half-maximal effect (EC50) at human GcgR amounted to 1780 nM; at hGLP-1R [1], 1.3 nM; on hGcgR, 7.18 nM; at hGIPR [2], 0.137 nM; at hGLP-1R [3], 252 nM; on hGIPR [4], 30.1 nM.
With `CC[C@H](C)[C@H](NC(=O)[C@H](Cc1ccccc1)NC(=O)[C@H](CCCN)NC(=O)C(C)(C)NC(=O)[C@H](CCC(N)=O)NC(=O)[C@H](C)NC(=O)[C@H](CCCCNC(=O)COCCOCCNC(=O)CC[C@H](NC(=O)CCCCCCCCCCCCCCCCC(=O)O)C(=O)O)NC(=O)[C@H](CCCN)NC(=O)[C@H](CC(=O)O)NC(=O)[C@H](CC(C)C)NC(=O)[C@](C)(CC(C)C)NC(=O)[C@@H](NC(=O)[C@H](CO)NC(=O)[C@H](Cc1ccncc1)NC(=O)[C@H](CC(=O)O)NC(=O)[C@H](CO)NC(=O)[C@@H](NC(=O)[C@](C)(Cc1ccccc1F)NC(=O)[C@@H](NC(=O)CNC(=O)[C@H](CCC(N)=O)NC(=O)C(C)(C)NC(=O)[C@@H](N)Cc1ccc(O)cc1)[C@@H](C)O)[C@@H](C)O)[C@@H](C)CC)C(=O)N[C@H](CCC(=O)O)C(=O)N[C@@](C)(Cc1ccc(O)cc1)C(=O)N[C@@H](CC(C)C)C(=O)N[C@@H](CC(C)C)C(=O)N[C@@H](CCC(=O)O)C(=O)NCC(=O)NCC(=O)N1CCC[C@H]1C(=O)N[C@@H](CO)C(=O)N[C@@H](CO)C(=O)NCC(=O)N[C@@H](CCC(=O)O)C(=O)N1CCC[C@H]1C(=O)N1CCC[C@H]1C(=O)N1CCC[C@H]1C(=O)N[C@@H](CO)C(N)=O` [Example 367], the EC50 at human GcgR is 668 nM; at hGLP-1R [1] (setting [5]) it was 0.421 nM; at hGcgR (setting [5]), 7.95 nM; at hGIPR [2] (setting [5]), 0.0215 nM; at hGLP-1R [3], 30.1 nM; on hGIPR [4], 4.89 nM.
For “H-Y[Aib]QGTFTSDYSI[αMeL]LDKQAAK([AEEA-AEEA-γGlu-C20 diacid])QFVEWLIA[Aib]GPSSGEPPPGTG-NH2 [Example 336]”, the EC50 at human GcgR was 1740 nM; at hGLP-1R [1] (setting [5]), 0.921 nM; on hGcgR (setting [5]), 7.05 nM; at hGIPR [2] (setting [5]) it was 0.306 nM; at hGLP-1R [3] it was 227 nM; on hGIPR [4], 64.4 nM.
“H-Y[Aib]QGTFTSD[4Pal]SR[αMeL]LDKK([AEEA-γGlu-C18 diacid])AQ[αMe4Pal]AFIEYLIE[Aib]GPSSGAPPPSGS-NH2 [Example 809]”: the EC50 on human GcgR amounted to 377 nM; on hGLP-1R [1] (setting [5]) it was 1.87 nM; on hGcgR (setting [5]) it was 1.74 nM; on hGIPR [2] (setting [5]) it was 0.194 nM; at hGLP-1R [3], 249 nM; at hGIPR [4], 20.4 nM.
As to “H-Y[Aib]QGTFTSD[4Pal]S[Orn][αMeL]LD[Orn]K([γGlu-γGlu-C18 diacid])AQ[αMe4Pal]EFIE[αMeY]LIEGGPSSGAPPPSGSEE-NH2 [Example 973]”, the EC50 at human GcgR came to 2270 nM; on hGLP-1R [1] (setting [5]) it was 6.1 nM; at hGcgR (setting [5]) it was 17.6 nM; at hGIPR [2] (setting [5]), 0.503 nM; at hGLP-1R [3], 1140 nM; at hGIPR [4], 60.1 nM.
Take “H-Y[Aib]QGT[αMePhe(2-F)]TSD[4Pal]SI[αMeL]LDKK([γGlu-γGlu-C18 diacid])AQ[Aib]AFIEYLEEGGPSSGAPPPSGTGE-NH2 [Example 622]”: the EC50 at human GcgR was determined as 641 nM; on hGLP-1R [1] it was 0.776 nM; on hGcgR, 7.7 nM; at hGIPR [2] it was 0.0148 nM; on hGLP-1R [3], 52.3 nM; on hGIPR [4] it was 1.19 nM.
Turning to `CC[C@H](C)[C@H](NC(=O)[C@H](CC(C)C)NC(=O)[C@H](Cc1ccc(O)cc1)NC(=O)[C@H](CCC(=O)O)NC(=O)[C@@H](NC(=O)[C@H](Cc1ccccc1)NC(=O)[C@H](CCCN)NC(=O)C(C)(C)NC(=O)[C@H](CCC(N)=O)NC(=O)[C@H](C)NC(=O)[C@H](CCCCNC(=O)COCCOCCNC(=O)CC[C@H](NC(=O)CCCCCCCCCCCCCCCCC(=O)O)C(=O)O)NC(=O)[C@H](CCCN)NC(=O)[C@H](CC(=O)O)NC(=O)[C@H](CC(C)C)NC(=O)[C@](C)(CC(C)C)NC(=O)[C@@H](NC(=O)[C@](C)(CO)NC(=O)[C@H](Cc1ccncc1)NC(=O)[C@H](CC(=O)O)NC(=O)[C@H](CO)NC(=O)[C@@H](NC(=O)[C@](C)(Cc1ccccc1F)NC(=O)[C@@H](NC(=O)CNC(=O)[C@H](CCC(N)=O)NC(=O)C(C)(C)NC(=O)[C@@H](N)Cc1ccc(O)cc1)[C@@H](C)O)[C@@H](C)O)[C@@H](C)CC)[C@@H](C)CC)C(=O)N[C@@H](CCC(=O)O)C(=O)NCC(=O)NCC(=O)N1CCC[C@H]1C(=O)N[C@@H](CO)C(=O)N[C@@H](CO)C(=O)NCC(=O)N[C@@H](CCC(=O)O)C(=O)N1CCC[C@H]1C(=O)N1CCC[C@H]1C(=O)N1CCC[C@H]1C(=O)N[C@@H](CCC(=O)O)C(N)=O` [Example 459] (H-Y[Aib]QGT[αMePhe(2-F)]TSD[4Pal][αMeS]I[αMeL]LD[Orn]K([AEEA-γGlu-C18 diacid])AQ[Aib][Orn]FIEYLIEGGPSSGEPPPE-NH2), the EC50 on human GcgR was 73.6 nM; on hGLP-1R [1], 0.179 nM; on hGcgR, 1.21 nM; at hGIPR [2] it was 0.0122 nM; at hGLP-1R [3], 12.6 nM; on hGIPR [4], 2.06 nM.
Consider “H-Y[Aib]QGTFTSD[4Pal]SQ[αMeL]LD[Orn]K([γGlu-γGlu-C18 diacid])AQ[αMe4Pal]AFIE[αMeY]LIA[Aib]GPSSGAPPPSGSEE-NH2 [Example 1107]”, for which the EC50 was found to be 864 nM on human GcgR; 0.51 nM on hGLP-1R [1] (setting [5]); 5.66 nM at hGcgR (setting [5]); 0.0447 nM at hGIPR [2] (setting [5]); 59 nM at hGLP-1R [3]; 5.29 nM on hGIPR [4].
